In series [1] the test system is intact skin of healthy volunteers. The series is described as follows: Irritation patch test study under semi-occlusive conditions. To be noted: continuous exposure under semi occlusion, 21 patch applications over 21 days.
From the text: This was a randomized, double-blind, single-center, vehicle-controlled, within-subject comparison patch test study of followings for irritation potential when repeatedly applied to the skin under semi-occlusive conditions in healthy volunteers: • i. […] Vehicle spray (without active agent of Composition 6), • iii.
All subjects received applications of each study product to intact skin at randomly assigned, adjacent sites on the back. Evaluators and subjects were blinded and unaware of the identity of the study product at the patch test sites. The study products were applied under semi-occlusive patch conditions using a 2 cm×2 cm patch. The products were applied to either side of the infrascapular area of the back. Evaluation of dermal reactions at the application sites were assessed clinically using a visual scale that rates the degree of erythema, edema, and other signs of cutaneous irritation.
A total of 21 patch applications were made over a period of 21 days. Irritancy score of each composition was recorded.
The conditions of series [2]: cited from earlier work.
Series [3] concerns skin blanching. To be noted: in vivo; cited from earlier work.

Read-outs that look alike come from different tables or passages of the source.

In the case of `CCCCCCCCCCCCOS(=O)(=O)[O-].[Na+]` [0.2% SLS, Sodium lauryl sulfate], in series [1], the Irritation result is recorded as “Significantly more irritation”.
With `CCC(=O)OCC(=O)[C@@]1(OC(=O)CC)[C@@H](C)C[C@H]2[C@@H]3CCC4=CC(=O)C=C[C@]4(C)[C@@]3(F)[C@@H](O)C[C@@]21C` [Betamethasone dipropionate, 9-fluoro-11(β),17,21-trihydroxy-16(β)-methylpregna-1,4-diene-3,20-dione 17,21-dipropionate], the Solubility entry in series [2] (in acetone) is “freely soluble”; in series [2] (in chloroform) it was “freely soluble”; in series [2] (in ethanol) it was “sparingly soluble”; in series [2] (in water), “practically insoluble”. The VCA potency class entry in series [3] is “super potent (Class 1) and/or high potent (Class 2)”.

The values above are taken from US20200230155A1, “TOPICAL CORTICOSTEROID COMPOSITIONS” (Encore Dermatology, Inc., priority 2014, published 2020).
